# According to PubChem BioAssay (NCI):
#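 Method: 48-hour compound exposure of cells in 96-well plates, five concentrations, linear interpolation of endpoints. Abbreviation: GI50, concentration required for 50% inhibition of growth. At the TGI there is no net growth.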
# Legend:
# Test in all cases: growth of human tumour cells (NCI), 48 h
# NCI-H23 lung = tested on: NCI-H23 lung
# K-562 leukemia = tested on: K-562 leukemia
# UACC-62 melanoma = tested on: UACC-62 melanoma
# PC-3 prostate = tested on: PC-3 prostate
# A549 NSCLC = tested on: A549 NSCLC
# OVCAR-5 ovarian = tested on: OVCAR-5 ovarian
# COLO 205 colon = tested on: COLO 205 colon
# T-47D breast = tested on: T-47D breast
# SF-539 CNS = tested on: SF-539 CNS
# U251 CNS = tested on: U251 CNS
# SF-295 CNS = tested on: SF-295 CNS
# EKVX NSCLC = tested on: EKVX NSCLC
# OVCAR-4 ovarian = tested on: OVCAR-4 ovarian
# M14 melanoma = tested on: M14 melanoma
# HT29 colon = tested on: HT29 colon
# SNB-75 CNS = tested on: SNB-75 CNS
# 786-0 renal = tested on: 786-0 renal
# NCI/ADR-RES ovarian = tested on: NCI/ADR-RES ovarian
# SK-MEL-2 melanoma = tested on: SK-MEL-2 melanoma
# RPMI-8226 leukemia = tested on: RPMI-8226 leukemia
# SK-OV-3 ovarian = tested on: SK-OV-3 ovarian
# UO-31 renal = tested on: UO-31 renal
# BT-549 breast = tested on: BT-549 breast
# MDA-MB-231 breast = tested on: MDA-MB-231 breast
# NCI-H522 lung = tested on: NCI-H522 lung
# NCI-H460 lung = tested on: NCI-H460 lung
# SR leukemia = tested on: SR leukemia
# OVCAR-8 ovarian = tested on: OVCAR-8 ovarian
# CCRF-CEM leukemia = tested on: CCRF-CEM leukemia
# MCF7 breast = tested on: MCF7 breast
# HS 578T breast = tested on: HS 578T breast
# SN12C renal = tested on: SN12C renal
# SW-620 colon = tested on: SW-620 colon
# HOP-62 NSCLC = tested on: HOP-62 NSCLC
# HL-60(TB) leukemia = tested on: HL-60(TB) leukemia
# MOLT-4 leukemia = tested on: MOLT-4 leukemia
# SK-MEL-5 melanoma = tested on: SK-MEL-5 melanoma
# SNB-19 CNS = tested on: SNB-19 CNS
# KM12 colon = tested on: KM12 colon
# UACC-257 melanoma = tested on: UACC-257 melanoma
# TK-10 renal = tested on: TK-10 renal
# HCC-2998 colon = tested on: HCC-2998 colon
# A498 renal = tested on: A498 renal
# DU-145 prostate = tested on: DU-145 prostate
# ACHN renal = tested on: ACHN renal
# OVCAR-3 ovarian = tested on: OVCAR-3 ovarian
# LOX IMVI melanoma = tested on: LOX IMVI melanoma
# HOP-92 NSCLC = tested on: HOP-92 NSCLC
# MDA-MB-435 = tested on: MDA-MB-435
# HCT-116 colon = tested on: HCT-116 colon
# SF-268 CNS = tested on: SF-268 CNS
# CAKI-1 renal = tested on: CAKI-1 renal
# RXF 393 renal = tested on: RXF 393 renal
# HCT-15 colon = tested on: HCT-15 colon
# IGROV1 ovarian = tested on: IGROV1 ovarian
# MALME-3M melanoma = tested on: MALME-3M melanoma
# NCI-H226 lung = tested on: NCI-H226 lung
# SK-MEL-28 melanoma = tested on: SK-MEL-28 melanoma
smiles,measurement,setting,value
O=C1c2ccccc2C(=O)c2c(N=Nc3[nH]c(=S)[nH]c3O)cccc21,GI50,NCI-H23 lung,1.67 µM
same,TGI,NCI-H23 lung,38.6 µM
same,GI50,K-562 leukemia,0.434 µM
same,TGI,K-562 leukemia,> 100 µM
same,GI50,UACC-62 melanoma,0.604 µM
same,TGI,UACC-62 melanoma,> 100 µM
same,GI50,PC-3 prostate,0.816 µM
same,TGI,PC-3 prostate,> 100 µM
same,GI50,A549 NSCLC,1.75 µM
same,TGI,A549 NSCLC,> 100 µM
same,GI50,OVCAR-5 ovarian,4.17 µM
same,TGI,OVCAR-5 ovarian,> 100 µM
same,GI50,COLO 205 colon,2.41 µM
same,TGI,COLO 205 colon,> 100 µM
same,GI50,T-47D breast,1.64 µM
same,TGI,T-47D breast,> 100 µM
same,GI50,SF-539 CNS,0.424 µM
same,TGI,SF-539 CNS,2.74 µM
same,GI50,U251 CNS,0.676 µM
same,TGI,U251 CNS,56.7 µM
same,GI50,SF-295 CNS,0.983 µM
same,TGI,SF-295 CNS,19.8 µM
same,GI50,EKVX NSCLC,4.71 µM
same,TGI,EKVX NSCLC,> 100 µM
same,GI50,OVCAR-4 ovarian,2.12 µM
same,TGI,OVCAR-4 ovarian,> 100 µM
same,GI50,M14 melanoma,0.579 µM
same,TGI,M14 melanoma,> 100 µM
same,GI50,HT29 colon,2.53 µM
same,TGI,HT29 colon,> 100 µM
same,GI50,SNB-75 CNS,0.346 µM
same,TGI,SNB-75 CNS,2.96 µM
same,GI50,786-0 renal,1.11 µM
same,TGI,786-0 renal,> 100 µM
same,GI50,NCI/ADR-RES ovarian,2.45 µM
same,TGI,NCI/ADR-RES ovarian,> 28.2 µM
same,GI50,SK-MEL-2 melanoma,1.7 µM
same,TGI,SK-MEL-2 melanoma,> 100 µM
same,GI50,RPMI-8226 leukemia,1.09 µM
same,TGI,RPMI-8226 leukemia,> 100 µM
same,GI50,SK-OV-3 ovarian,3.86 µM
same,TGI,SK-OV-3 ovarian,> 100 µM
same,GI50,UO-31 renal,0.792 µM
same,TGI,UO-31 renal,> 21.4 µM
same,GI50,BT-549 breast,1.12 µM
same,TGI,BT-549 breast,43.3 µM
same,GI50,MDA-MB-231 breast,1.3 µM
same,TGI,MDA-MB-231 breast,18.3 µM
same,GI50,NCI-H522 lung,0.425 µM
same,TGI,NCI-H522 lung,> 34.5 µM
same,GI50,NCI-H460 lung,0.849 µM
same,TGI,NCI-H460 lung,> 100 µM
same,GI50,SR leukemia,0.472 µM
same,TGI,SR leukemia,> 100 µM
same,GI50,OVCAR-8 ovarian,2.47 µM
same,TGI,OVCAR-8 ovarian,> 100 µM
same,GI50,CCRF-CEM leukemia,0.384 µM
same,TGI,CCRF-CEM leukemia,> 100 µM
same,GI50,MCF7 breast,0.357 µM
same,TGI,MCF7 breast,> 100 µM
same,GI50,HS 578T breast,0.462 µM
same,TGI,HS 578T breast,47.9 µM
same,GI50,SN12C renal,1.49 µM
same,TGI,SN12C renal,> 100 µM
same,GI50,SW-620 colon,0.496 µM
same,TGI,SW-620 colon,> 100 µM
same,GI50,HOP-62 NSCLC,1.84 µM
same,TGI,HOP-62 NSCLC,> 61.6 µM
same,GI50,HL-60(TB) leukemia,1.13 µM
same,TGI,HL-60(TB) leukemia,> 100 µM
same,GI50,MOLT-4 leukemia,1.1 µM
same,TGI,MOLT-4 leukemia,> 100 µM
same,GI50,SK-MEL-5 melanoma,0.743 µM
same,TGI,SK-MEL-5 melanoma,> 100 µM
same,GI50,SNB-19 CNS,0.997 µM
same,TGI,SNB-19 CNS,> 74.8 µM
same,GI50,KM12 colon,0.454 µM
same,TGI,KM12 colon,> 100 µM
same,GI50,UACC-257 melanoma,> 100 µM
same,TGI,UACC-257 melanoma,> 100 µM
same,GI50,TK-10 renal,5.23 µM
same,TGI,TK-10 renal,> 100 µM
same,GI50,HCC-2998 colon,3.08 µM
same,TGI,HCC-2998 colon,> 100 µM
same,GI50,A498 renal,0.104 µM
same,TGI,A498 renal,1.13 µM
same,GI50,DU-145 prostate,0.984 µM
same,TGI,DU-145 prostate,> 42.4 µM
same,GI50,ACHN renal,1.9 µM
same,TGI,ACHN renal,> 100 µM
same,GI50,OVCAR-3 ovarian,0.368 µM
same,GI50,LOX IMVI melanoma,0.734 µM
same,TGI,LOX IMVI melanoma,> 100 µM
same,GI50,HOP-92 NSCLC,0.877 µM
same,TGI,HOP-92 NSCLC,> 57.2 µM
same,GI50,MDA-MB-435,0.224 µM
same,TGI,MDA-MB-435,0.63 µM
same,GI50,HCT-116 colon,0.462 µM
same,TGI,HCT-116 colon,> 100 µM
same,GI50,SF-268 CNS,1.56 µM
same,TGI,SF-268 CNS,98.9 µM
same,GI50,CAKI-1 renal,0.548 µM
same,TGI,CAKI-1 renal,> 75 µM
same,GI50,RXF 393 renal,0.508 µM
same,TGI,RXF 393 renal,3.21 µM
same,GI50,HCT-15 colon,0.689 µM
same,TGI,HCT-15 colon,> 100 µM
same,GI50,IGROV1 ovarian,0.968 µM
same,TGI,IGROV1 ovarian,> 100 µM
same,GI50,MALME-3M melanoma,0.769 µM
same,TGI,MALME-3M melanoma,> 100 µM
same,GI50,NCI-H226 lung,4.33 µM
same,TGI,NCI-H226 lung,> 56.9 µM
same,GI50,SK-MEL-28 melanoma,5.2 µM
same,TGI,SK-MEL-28 melanoma,> 100 µM
